Test results: publication PMC9234961 (Journal of Medicinal Chemistry, 2022)
Several values for one entry are separate records, joined by “and”; a condition that tells them apart may be missing. Equal values may be shown once. Read-outs that look alike come from different tables or passages of the source.

Tests used:
KvLQT1/minK = KvLQT1/minK (Homo sapiens, UniProt P51787); experiment: SAFETYScan Ion Channel, Blocker; format: cell-based
Description: (§1) Supplement jm1c02175_si_002.xlsx, sheet "SAFETYScan" | column: RC50 (uM); Max Response

nAChR(a4/b2) = nAChR(a4/b2) (Homo sapiens, UniProt P17787+P43681); experiment: SAFETYScan Ion Channel, Blocker; format: cell-based
Chain of nAChR(a4/b2) (P43681 29-627 limits assumed): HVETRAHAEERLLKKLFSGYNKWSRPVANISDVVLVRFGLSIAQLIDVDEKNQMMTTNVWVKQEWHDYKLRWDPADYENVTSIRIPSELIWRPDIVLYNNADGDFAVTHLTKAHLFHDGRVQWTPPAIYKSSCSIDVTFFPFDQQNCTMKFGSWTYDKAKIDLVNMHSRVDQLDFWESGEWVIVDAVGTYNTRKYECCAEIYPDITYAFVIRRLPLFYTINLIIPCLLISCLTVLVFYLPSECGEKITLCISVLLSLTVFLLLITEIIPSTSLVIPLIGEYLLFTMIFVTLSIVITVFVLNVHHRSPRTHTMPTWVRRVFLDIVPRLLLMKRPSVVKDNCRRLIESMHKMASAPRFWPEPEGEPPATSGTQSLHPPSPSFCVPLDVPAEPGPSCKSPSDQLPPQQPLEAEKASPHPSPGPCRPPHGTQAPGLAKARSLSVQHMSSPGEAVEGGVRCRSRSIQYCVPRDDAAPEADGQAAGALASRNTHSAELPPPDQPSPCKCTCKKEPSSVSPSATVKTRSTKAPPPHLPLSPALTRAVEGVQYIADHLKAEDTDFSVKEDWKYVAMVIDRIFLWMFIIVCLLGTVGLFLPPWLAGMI
Chain of nAChR(a4/b2) (P17787 26-502): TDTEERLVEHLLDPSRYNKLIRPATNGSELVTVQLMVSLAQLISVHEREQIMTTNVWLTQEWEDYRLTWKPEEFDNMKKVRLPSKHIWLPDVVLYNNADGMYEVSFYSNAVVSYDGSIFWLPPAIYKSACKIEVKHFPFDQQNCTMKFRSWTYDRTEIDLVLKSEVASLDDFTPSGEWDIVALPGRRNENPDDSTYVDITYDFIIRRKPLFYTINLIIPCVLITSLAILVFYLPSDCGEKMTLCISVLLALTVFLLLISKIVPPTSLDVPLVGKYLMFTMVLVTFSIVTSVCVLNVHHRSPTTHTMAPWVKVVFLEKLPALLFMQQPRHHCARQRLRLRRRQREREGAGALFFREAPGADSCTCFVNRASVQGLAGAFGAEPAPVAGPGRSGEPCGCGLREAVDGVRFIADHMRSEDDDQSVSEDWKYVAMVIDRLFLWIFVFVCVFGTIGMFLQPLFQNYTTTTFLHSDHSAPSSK
Description: as §1

CAV1.2 = CAV1.2 (Homo sapiens, UniProt Q13936); experiment: SAFETYScan Ion Channel, Blocker; format: cell-based
Description: as §1

hERG = hERG (Homo sapiens, UniProt Q12809); experiment: SAFETYScan Ion Channel, Blocker; format: cell-based
Chain of hERG (Q12809 whole entry): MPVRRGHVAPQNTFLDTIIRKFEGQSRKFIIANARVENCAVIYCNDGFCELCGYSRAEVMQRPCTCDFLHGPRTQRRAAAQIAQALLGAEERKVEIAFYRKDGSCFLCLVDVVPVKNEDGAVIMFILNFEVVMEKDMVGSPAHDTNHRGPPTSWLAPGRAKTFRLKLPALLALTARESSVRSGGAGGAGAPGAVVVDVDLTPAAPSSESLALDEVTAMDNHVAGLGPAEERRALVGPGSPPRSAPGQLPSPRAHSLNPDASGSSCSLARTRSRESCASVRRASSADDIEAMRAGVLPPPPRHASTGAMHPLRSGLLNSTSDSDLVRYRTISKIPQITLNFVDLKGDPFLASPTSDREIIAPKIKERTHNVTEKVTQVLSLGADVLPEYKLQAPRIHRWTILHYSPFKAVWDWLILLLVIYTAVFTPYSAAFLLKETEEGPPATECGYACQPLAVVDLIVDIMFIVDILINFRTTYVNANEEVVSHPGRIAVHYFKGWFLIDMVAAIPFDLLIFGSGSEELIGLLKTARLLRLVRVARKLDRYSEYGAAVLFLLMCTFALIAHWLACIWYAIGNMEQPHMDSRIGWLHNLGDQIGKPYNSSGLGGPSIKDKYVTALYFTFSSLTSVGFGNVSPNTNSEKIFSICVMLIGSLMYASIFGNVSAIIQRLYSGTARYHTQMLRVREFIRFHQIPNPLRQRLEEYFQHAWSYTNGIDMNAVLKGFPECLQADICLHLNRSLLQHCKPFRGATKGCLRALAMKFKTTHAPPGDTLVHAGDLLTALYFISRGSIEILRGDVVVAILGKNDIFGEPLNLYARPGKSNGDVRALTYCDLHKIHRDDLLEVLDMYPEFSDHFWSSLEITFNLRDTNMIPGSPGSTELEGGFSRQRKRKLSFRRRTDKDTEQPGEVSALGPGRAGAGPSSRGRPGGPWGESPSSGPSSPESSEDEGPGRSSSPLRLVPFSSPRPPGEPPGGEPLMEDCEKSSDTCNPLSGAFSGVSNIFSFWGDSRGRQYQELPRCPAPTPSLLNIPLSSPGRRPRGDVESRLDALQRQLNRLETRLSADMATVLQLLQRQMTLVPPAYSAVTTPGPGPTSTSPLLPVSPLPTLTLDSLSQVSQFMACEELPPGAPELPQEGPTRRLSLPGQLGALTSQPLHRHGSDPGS
Description: as §1

NMDAR (1A/2B) = NMDAR (1A/2B) (Homo sapiens, UniProt Q05586+Q13224); experiment: SAFETYScan Ion Channel, Blocker; format: cell-based
Chain of NMDAR (1A/2B) (Q13224 27-1484, other chains not shown): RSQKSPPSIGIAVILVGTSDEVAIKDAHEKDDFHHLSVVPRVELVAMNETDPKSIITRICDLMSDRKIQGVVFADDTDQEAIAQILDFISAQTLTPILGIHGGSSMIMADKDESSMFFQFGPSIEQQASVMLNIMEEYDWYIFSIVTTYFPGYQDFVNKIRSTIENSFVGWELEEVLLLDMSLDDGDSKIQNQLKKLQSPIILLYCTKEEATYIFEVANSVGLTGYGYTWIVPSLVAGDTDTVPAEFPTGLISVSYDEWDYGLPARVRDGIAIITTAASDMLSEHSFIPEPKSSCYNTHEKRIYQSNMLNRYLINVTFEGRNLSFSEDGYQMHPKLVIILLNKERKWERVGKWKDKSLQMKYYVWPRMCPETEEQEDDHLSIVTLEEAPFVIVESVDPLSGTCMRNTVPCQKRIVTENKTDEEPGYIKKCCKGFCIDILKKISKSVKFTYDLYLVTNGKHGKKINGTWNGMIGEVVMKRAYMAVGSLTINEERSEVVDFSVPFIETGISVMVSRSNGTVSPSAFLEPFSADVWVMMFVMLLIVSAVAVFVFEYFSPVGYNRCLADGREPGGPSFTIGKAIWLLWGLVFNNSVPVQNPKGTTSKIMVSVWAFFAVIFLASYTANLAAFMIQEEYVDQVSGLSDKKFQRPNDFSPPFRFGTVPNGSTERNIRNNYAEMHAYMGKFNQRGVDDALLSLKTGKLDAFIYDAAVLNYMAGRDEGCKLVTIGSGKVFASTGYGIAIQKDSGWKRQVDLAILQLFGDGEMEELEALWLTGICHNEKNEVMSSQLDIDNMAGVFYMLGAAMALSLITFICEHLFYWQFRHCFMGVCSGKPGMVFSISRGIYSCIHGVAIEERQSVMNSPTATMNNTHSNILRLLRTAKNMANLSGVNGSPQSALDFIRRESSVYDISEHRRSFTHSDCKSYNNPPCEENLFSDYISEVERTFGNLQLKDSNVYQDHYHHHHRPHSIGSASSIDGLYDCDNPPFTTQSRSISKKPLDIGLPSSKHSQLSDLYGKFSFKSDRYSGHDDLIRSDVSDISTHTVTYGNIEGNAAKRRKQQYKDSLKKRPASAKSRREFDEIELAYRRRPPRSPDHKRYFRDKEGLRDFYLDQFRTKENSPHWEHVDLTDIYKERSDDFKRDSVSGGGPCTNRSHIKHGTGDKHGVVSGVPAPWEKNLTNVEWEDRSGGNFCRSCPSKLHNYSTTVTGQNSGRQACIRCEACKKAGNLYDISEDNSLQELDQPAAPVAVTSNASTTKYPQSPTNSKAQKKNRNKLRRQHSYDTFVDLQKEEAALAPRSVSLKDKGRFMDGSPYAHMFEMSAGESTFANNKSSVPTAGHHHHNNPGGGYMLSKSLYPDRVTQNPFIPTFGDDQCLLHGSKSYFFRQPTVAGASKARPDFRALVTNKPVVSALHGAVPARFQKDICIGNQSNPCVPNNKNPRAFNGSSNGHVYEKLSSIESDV
Description: as §1

in vitro = in vitro ADME; conditions: bovine; fraction unbound in OCI-Ly1 DC50 assay medium; read-out: fu,media
human BCL6 BTB domain = human BCL6 BTB domain (Homo sapiens, UniProt P41182); experiment: biochemical; conditions: BCL6 TR-FRET IC50 individual replicates, single replicate values
AR = molecular target: T1, AR (Homo sapiens, UniProt P10275); experiment: SAFETYScan NHR Nuclear Translocation, Agonist; format: cell-based
T1 sequence (P10275 1-920): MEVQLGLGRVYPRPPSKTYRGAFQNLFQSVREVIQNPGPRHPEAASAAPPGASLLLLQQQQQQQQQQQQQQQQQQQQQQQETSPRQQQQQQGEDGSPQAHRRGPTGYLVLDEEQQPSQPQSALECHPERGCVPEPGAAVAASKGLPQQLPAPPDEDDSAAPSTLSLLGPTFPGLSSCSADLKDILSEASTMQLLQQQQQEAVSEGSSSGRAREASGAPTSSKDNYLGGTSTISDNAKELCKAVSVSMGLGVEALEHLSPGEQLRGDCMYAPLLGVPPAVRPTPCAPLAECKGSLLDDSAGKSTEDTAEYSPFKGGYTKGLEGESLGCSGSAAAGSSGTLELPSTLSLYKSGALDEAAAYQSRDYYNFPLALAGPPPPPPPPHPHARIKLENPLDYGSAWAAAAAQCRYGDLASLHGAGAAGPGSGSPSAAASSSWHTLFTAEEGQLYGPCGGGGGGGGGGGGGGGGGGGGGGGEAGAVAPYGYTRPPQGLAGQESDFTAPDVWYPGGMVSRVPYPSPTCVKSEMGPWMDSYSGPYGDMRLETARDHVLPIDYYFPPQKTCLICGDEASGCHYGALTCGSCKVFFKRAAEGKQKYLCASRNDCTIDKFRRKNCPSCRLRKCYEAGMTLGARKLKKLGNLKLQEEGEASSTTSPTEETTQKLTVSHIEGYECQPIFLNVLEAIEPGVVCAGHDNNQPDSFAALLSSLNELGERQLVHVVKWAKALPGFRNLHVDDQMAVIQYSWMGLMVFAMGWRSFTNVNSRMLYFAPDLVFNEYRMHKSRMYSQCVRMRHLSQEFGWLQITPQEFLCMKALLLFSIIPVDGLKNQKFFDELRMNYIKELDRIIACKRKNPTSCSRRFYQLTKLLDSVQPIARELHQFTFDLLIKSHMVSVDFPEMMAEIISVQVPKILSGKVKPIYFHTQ
Description: as §1

GR = molecular target: T2, GR (Homo sapiens, UniProt P04150); experiment: SAFETYScan NHR Protein Interaction, Agonist; format: cell-based
T2 sequence (P04150 1-777): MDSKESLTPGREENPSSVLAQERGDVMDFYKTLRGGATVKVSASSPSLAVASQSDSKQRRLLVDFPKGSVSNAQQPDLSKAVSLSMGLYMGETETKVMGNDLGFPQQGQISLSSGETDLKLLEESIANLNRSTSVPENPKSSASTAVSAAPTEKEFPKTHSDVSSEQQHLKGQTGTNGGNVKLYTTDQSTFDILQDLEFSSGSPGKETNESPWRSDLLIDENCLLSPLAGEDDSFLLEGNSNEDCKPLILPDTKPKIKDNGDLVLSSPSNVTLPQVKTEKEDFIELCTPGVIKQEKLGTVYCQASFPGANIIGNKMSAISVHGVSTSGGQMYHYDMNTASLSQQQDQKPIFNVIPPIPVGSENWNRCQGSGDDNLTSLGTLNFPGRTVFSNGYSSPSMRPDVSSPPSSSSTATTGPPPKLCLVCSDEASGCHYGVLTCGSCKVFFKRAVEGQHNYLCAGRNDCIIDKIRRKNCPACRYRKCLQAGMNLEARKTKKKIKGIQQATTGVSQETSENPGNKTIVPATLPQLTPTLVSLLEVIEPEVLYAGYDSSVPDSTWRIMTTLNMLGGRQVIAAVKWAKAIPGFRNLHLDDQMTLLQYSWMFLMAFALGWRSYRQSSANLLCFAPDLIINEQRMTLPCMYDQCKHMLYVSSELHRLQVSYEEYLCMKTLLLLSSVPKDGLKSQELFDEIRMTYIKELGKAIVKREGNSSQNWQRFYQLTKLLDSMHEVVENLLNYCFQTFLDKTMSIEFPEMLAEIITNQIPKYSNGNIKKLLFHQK
Description: as §1

[1] = logD7.4 assay (Chrom log D method); format: physicochemical; conditions: reversed-phase HPLC on Phenomenex Luna C8 column, pH 7.4, read-out: Measured logD7.4
Procedure, shortened: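 Samples at 1mM in 10% DMSO/90% Trizma buffer (100mM Trizma in 75/25 methanol/water) injected onto a C8 column at 30°C under gradient elution at 2 mL/min. Retention calibrated against calibration and validation standards.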

[2] = In vivo pharmacokinetic study in Balb/C mice; design: species or system mouse; conditions: for Vd: 1 mg/kg, read-out: Vss

Chain of KvLQT1/minK (P51787 whole entry): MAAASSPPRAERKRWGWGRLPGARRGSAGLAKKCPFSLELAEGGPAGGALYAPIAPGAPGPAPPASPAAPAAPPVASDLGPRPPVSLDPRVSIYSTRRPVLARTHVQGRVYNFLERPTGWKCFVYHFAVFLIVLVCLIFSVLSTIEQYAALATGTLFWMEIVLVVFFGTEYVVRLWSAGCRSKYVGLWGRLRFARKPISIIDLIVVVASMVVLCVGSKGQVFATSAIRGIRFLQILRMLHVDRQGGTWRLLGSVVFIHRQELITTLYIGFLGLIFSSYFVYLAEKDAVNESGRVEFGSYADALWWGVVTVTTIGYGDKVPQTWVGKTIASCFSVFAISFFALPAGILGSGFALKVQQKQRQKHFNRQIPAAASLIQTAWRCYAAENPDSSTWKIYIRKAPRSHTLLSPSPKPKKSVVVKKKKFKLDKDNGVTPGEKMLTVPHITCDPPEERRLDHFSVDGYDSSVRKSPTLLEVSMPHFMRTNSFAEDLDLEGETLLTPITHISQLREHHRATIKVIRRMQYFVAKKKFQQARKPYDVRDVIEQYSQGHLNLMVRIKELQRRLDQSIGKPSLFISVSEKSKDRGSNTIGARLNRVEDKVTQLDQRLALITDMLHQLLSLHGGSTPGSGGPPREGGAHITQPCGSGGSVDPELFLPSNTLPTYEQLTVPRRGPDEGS

For C[C@H]1C[C@@H](O)CN(c2ncc(Cl)c(Nc3ccc4c(c3)c3c(c(=O)n4C)OCC(F)(F)[C@H](C4CC4)N3)n2)C1 [12a CCT373566, (S)-10-((5-Chloro-2-((3R,5S)-3-hydroxy-5-methylpiperidin-1-yl)pyrimidin-4-yl)amino)-2-cyclopropyl-3,3-difluoro-7-methyl-1,2,3,4-tetrahydro-[1,4]oxazepino[2,3-c]quinolin-6(7H)-one], the Emax (KvLQT1/minK; read-out: Max Response) was 13.1%, the IC50 (KvLQT1/minK; read-out: RC50 (IC50)) was over 10 µM and the Emax (nAChR(a4/b2); read-out: Max Response) was 7.49%. It also gave an IC50 (nAChR(a4/b2); read-out: RC50 (IC50)) of over 10 µM, an Emax (CAV1.2; read-out: Max Response) of 0% and an IC50 (CAV1.2; read-out: RC50 (IC50)) of over 10 µM. It also gave an Emax (hERG; human, read-out: Max Response) of 93%, an IC50 (hERG; read-out: RC50 (IC50)) of 1.44 µM and an Emax (NMDAR (1A/2B); read-out: Max Response) of 0%. The IC50 (NMDAR (1A/2B); read-out: RC50 (IC50)) was over 10 µM, the fraction unbound (in vitro) was 0.13 and the IC50 (human BCL6 BTB domain) was 3.8 nM and 1.9 nM and 1.7 nM and 2.6 nM (3×) and 2.4 nM and 2.9 nM and 1.8 nM (3×) and 1.2 nM and 2.7 nM. For the same compound, the Emax (AR; read-out: Max Response) was 0%, the EC50 (AR; read-out: RC50 (EC50)) was over 10 µM and the Emax (GR; read-out: Max Response) was 0.05%. The EC50 (GR; read-out: RC50 (EC50)) was over 10 µM, the chromatographic logD [1] was 3 and the “appearance of mice after dosing” value ([2]; 1 mg/kg i.v. and 5 mg/kg p.o., female Balb/C mice, after dosing and 24 h after dosing) was “appeared normal”. The “increase in free concentration/exposure in vivo compared to CCT369260” value ([2]; 5 mg/kg po, BALB/c mice) was “over fivefold increase”, the Vd ([2]; Balb/C, mouse, whole blood, intravenous, initial PK studies) was 0.47 L/kg and the “CL as % Qh” value ([2]; female Balb/C mice) was 6 % Qh. For the same compound, the bioavailability ([2]; female, Balb/C, mouse, in vivo, po, 5 mg/kg) was 44%, the Vd ([2]; mouse, in vivo, female Balb/C mice) was 0.47 L/kg and the clearance ([2]; mouse, in vivo, iv, female Balb/C mice, 1 mg/kg i.v.) was 5.7 mL/min/kg. The half-life at 6 h ([2]; mouse, in vivo, po, 5 mg/kg, female Balb/C mice) was 1.15 h, the Cmax ([2]; mouse, in vivo, female Balb/C mice, 1 mg/kg i.v. and 5 mg/kg p.o.) was 3.95 µM and the CLu ([2]; unbound clearance, female Balb/C mice) was 4670 mL/min/kg.
